Columns and labels:
human TLR8 = target: T1, human TLR8 (Homo sapiens, UniProt Q9NR97); experiment: TLR8 inhibition reporter assay (HEK-Blue SEAP); assay type: cell-based; settings: HEK-Blue cells overexpressing human TLR8, R848 15.9 μM, 22 hour incubation
T1 construct: host or cells: HEK-Blue cells
T1 sequence (Q9NR97 27-1041): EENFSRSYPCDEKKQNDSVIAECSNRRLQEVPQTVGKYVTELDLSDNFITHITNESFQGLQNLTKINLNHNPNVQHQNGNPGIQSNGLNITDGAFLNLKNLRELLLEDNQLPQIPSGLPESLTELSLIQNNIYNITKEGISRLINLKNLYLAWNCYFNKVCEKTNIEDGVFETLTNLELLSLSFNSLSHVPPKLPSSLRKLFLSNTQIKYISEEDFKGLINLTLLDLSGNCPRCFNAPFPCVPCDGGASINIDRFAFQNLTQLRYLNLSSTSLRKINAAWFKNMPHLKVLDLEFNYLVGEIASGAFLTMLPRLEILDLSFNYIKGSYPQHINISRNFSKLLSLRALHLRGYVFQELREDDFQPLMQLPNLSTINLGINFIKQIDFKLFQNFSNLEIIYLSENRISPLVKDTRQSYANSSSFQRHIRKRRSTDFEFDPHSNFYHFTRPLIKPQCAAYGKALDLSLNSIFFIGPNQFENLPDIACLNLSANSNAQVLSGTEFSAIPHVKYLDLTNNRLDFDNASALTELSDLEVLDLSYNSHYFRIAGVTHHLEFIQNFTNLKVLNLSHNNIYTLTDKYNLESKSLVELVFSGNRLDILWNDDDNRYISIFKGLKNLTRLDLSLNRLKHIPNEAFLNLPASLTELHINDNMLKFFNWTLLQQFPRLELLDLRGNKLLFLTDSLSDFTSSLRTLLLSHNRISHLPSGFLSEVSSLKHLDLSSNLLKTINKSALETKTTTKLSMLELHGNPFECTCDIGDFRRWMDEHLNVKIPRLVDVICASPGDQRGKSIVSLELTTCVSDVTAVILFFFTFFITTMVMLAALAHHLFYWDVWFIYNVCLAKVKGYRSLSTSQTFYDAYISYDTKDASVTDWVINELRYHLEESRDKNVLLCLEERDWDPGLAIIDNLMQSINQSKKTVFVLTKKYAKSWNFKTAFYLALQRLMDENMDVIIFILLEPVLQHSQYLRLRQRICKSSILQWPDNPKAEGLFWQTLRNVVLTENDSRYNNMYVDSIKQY
Summary of the method: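 Dose–response from 0.05 nM to 50 μM was run in HEK-Blue human TLR7, TLR8 and TLR9 reporter cells. After 30 min at room temperature with compound, ligand was added (TLR7 gardiquimod 7.5 μM; TLR8 R848 15.9 μM; TLR9 ODN2006 5 nM) and SEAP measured next day, at 22 h.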

human TLR7 = target: T2, human TLR7 (Homo sapiens, UniProt Q9NYK1); experiment: TLR7 inhibition reporter assay (HEK-Blue SEAP); assay type: cell-based; settings: HEK-Blue cells overexpressing human TLR7, gardiquimod 7.5 μM, 22 hour incubation
T2 construct: host or cells: HEK-Blue cells
T2 sequence (Q9NYK1 27-1049): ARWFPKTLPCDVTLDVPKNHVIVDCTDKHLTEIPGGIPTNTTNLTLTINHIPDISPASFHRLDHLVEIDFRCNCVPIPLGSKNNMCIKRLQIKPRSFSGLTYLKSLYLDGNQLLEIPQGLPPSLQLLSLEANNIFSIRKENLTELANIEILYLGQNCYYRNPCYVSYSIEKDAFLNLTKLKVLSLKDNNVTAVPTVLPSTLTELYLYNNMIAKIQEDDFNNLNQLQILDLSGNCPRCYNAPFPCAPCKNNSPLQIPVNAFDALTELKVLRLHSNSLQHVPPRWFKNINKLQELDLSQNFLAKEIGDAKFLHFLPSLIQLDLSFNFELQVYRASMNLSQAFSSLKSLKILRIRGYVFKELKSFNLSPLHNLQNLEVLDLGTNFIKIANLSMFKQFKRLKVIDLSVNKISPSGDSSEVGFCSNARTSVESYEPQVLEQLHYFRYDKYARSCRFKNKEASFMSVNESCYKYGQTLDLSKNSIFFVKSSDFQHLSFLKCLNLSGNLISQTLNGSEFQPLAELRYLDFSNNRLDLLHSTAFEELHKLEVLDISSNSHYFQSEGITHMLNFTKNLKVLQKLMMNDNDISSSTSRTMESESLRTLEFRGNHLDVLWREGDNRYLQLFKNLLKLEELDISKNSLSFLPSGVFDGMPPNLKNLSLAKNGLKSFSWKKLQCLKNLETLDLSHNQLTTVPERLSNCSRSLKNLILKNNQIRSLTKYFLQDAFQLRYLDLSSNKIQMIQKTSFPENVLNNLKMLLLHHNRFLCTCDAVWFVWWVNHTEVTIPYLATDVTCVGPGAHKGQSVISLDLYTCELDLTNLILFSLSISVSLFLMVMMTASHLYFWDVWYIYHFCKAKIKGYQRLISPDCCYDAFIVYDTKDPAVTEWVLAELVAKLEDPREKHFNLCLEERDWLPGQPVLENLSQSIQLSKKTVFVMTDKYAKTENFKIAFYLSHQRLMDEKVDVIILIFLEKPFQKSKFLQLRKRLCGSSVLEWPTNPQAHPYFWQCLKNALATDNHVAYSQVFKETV
Summary of the method: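 In this cell reporter format, test compounds at 0.05 nM-50 μM final incubate 22 h with seeded cells (TLR7 15000, TLR8 20,000 per well). SEAP read-out by HEK-Blue Detection medium yields % inhibition relative to agonist/DMSO and known-inhibitor wells.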

Row | SMILES | IC50 (human TLR8) | IC50 (human TLR7)
1 | COc1cc(-c2cc3[nH]c(=O)n([C@H]4CC[C@H](N(CC5CC5)CC5CC5)CC4)c3cc2C(C)C)cn2ncnc12 [Example 206, 1-((1r,4s)-4-(bis(cyclopropylmethyl)amino)cyclohexyl)-6-isopropyl-5-(8-methoxy-[1,2,4]triazolo[1,5-a]pyridin-6-yl)-1,3-dihydro-2H-benzo[d]imidazol-2-one] | 0.57 nM | 1.3 nM
2 | CCc1cc2c(cc1-c1cc(OC)c3ncnn3c1)[nH]c(=O)n2[C@@H]1CCCN(CCC(C)(C)C)C1 [Example 208, (R)-1-(1-(3,3-dimethylbutyl)piperidin-3-yl)-6-ethyl-5-(8-methoxy-[1,2,4]triazolo[1,5-a]pyridin-6-yl)-1,3-dihydro-2H-benzo[d]imidazol-2-one] | 3.77 nM | 6.52 nM
3 | CCc1cc2c(cc1-c1cc(OC)c3ncnn3c1)[nH]c(=O)n2[C@@H]1CCCN(CC2CCCC2)C1 [Example 209, (R)-1-(1-(cyclopentylmethyl)piperidin-3-yl)-6-ethyl-5-(8-methoxy-[1,2,4]triazolo[1,5-a]pyridin-6-yl)-1,3-dihydro-2H-benzo[d]imidazol-2-one] | 20.4 nM | 7.96 nM
4 | COc1cc(-c2cc3[nH]c(=O)n([C@@H]4CCCN(CCC(C)(C)C)C4)c3cc2C(C)C)cn2ncnc12 [Example 210, (R)-1-(1-(3,3-dimethylbutyl)piperidin-3-yl)-6-isopropyl-5-(8-methoxy-[1,2,4]triazolo[1,5-a]pyridin-6-yl)-1,3-dihydro-2H-benzo[d]imidazol-2-one] | 3.3 nM | 2.86 nM
5 | COc1cc(-c2cc3[nH]c(=O)n([C@@H]4CCCN(CC5CCCC5)C4)c3cc2C(C)C)cn2ncnc12 [Example 211, (R)-1-(1-(cyclopentylmethyl)piperidin-3-yl)-6-isopropyl-5-(8-methoxy-[1,2,4]triazolo[1,5-a]pyridin-6-yl)-1,3-dihydro-2H-benzo[d]imidazol-2-one] | 0.05 nM | 0.05 nM
6 | CCc1cc2c(cc1-c1cc(OC)c3ncnn3c1)[nH]c(=O)n2[C@@H]1CCCN(C2CCOC2)C1 (stereo partly drawn) [Example 212, 6-ethyl-5-(8-methoxy-[1,2,4]triazolo[1,5-a]pyridin-6-yl)-1-((3R)-1-(tetrahydrofuran-3-yl)piperidin-3-yl)-1,3-dihydro-2H-benzo[d]imidazol-2-one] | 4.4 nM | 25.4 nM
7 | CCc1cc2c(cc1-c1cc(OC)c3ncnn3c1)[nH]c(=O)n2[C@@H]1CCCN(C2CCOC2)C1 (stereo partly drawn) [Example 213, 6-ethyl-5-(8-methoxy-[1,2,4]triazolo[1,5-a]pyridin-6-yl)-1-((3R)-1-(tetrahydrofuran-3-yl)piperidin-3-yl)-1,3-dihydro-2H-benzo[d]imidazol-2-one] | 4.62 nM | 37.3 nM

Other lines, results leading:

Row | IC50 (human TLR8) | IC50 (human TLR7) | SMILES
8 | 0.04 nM | 0.8 nM | COc1cc(-c2cc3[nH]c(=O)n([C@H]4CC[C@@H](NCC(C)(C)C)CC4)c3cc2C(C)C)cn2ncnc12 [Example 197, 6-isopropyl-5-(8-methoxy-[1,2,4]triazolo[1,5-a]pyridin-6-yl)-1-((1s,4s)-4-(neopentylamino)cyclohexyl)-1,3-dihydro-2H-benzo[d]imidazol-2-one]
9 | 0.15 nM | 4.92 nM | CCC(CC)CN[C@H]1CC[C@@H](n2c(=O)[nH]c3cc(-c4cn5ncnc5c(C)c4C)c(C(C)C)cc32)CC1 [Example 198]
10 | 0.53 nM | 5.03 nM | CCCN(CCC)[C@H]1CC[C@@H](n2c(=O)[nH]c3cc(-c4cn5ncnc5c(C)c4C)c(C(C)C)cc32)CC1 [Example 199, 5-(7,8-dimethyl-[1,2,4]triazolo[1,5-a]pyridin-6-yl)-1-((1s,4s)-4-(dipropylamino)cyclohexyl)-6-isopropyl-1,3-dihydro-2H-benzo[d]imidazol-2-one]
11 | 0.13 nM | 9.02 nM | Cc1c(-c2cc3[nH]c(=O)n([C@H]4CC[C@@H](NCC5CCOCC5)CC4)c3cc2C(C)C)cn2ncnc2c1C [Example 200, 5-(7,8-dimethyl-[1,2,4]triazolo[1,5-a]pyridin-6-yl)-6-isopropyl-1-((1s,4s)-4-(((tetrahydro-2H-pyran-4-yl)methyl)amino)cyclohexyl)-1,3-dihydro-2H-benzo[d]imidazol-2-one]
12 | 1.54 nM | 2.07 nM | COc1cc(-c2cc3[nH]c(=O)n([C@H]4CC[C@H](NC5COC5)CC4)c3cc2C(C)C)cn2ncnc12 [Example 201, 6-isopropyl-5-(8-methoxy-[1,2,4]triazolo[1,5-a]pyridin-6-yl)-1-((1r,4r)-4-(oxetan-3-ylamino)cyclohexyl)-1,3-dihydro-2H-benzo[d]imidazol-2-one]
13 | 0.81 nM | 3.51 nM | COc1cc(-c2cc3[nH]c(=O)n([C@H]4CC[C@H](N(C)C)CC4)c3cc2C(C)C)cn2ncnc12 [Example 202, 1-((1r,4r)-4-(dimethylamino)cyclohexyl)-6-isopropyl-5-(8-methoxy-[1,2,4]triazolo[1,5-a]pyridin-6-yl)-1,3-dihydro-2H-benzo[d]imidazol-2-one]
14 | 1.34 nM | 4.72 nM | COc1cc(-c2cc3[nH]c(=O)n([C@H]4CC[C@H](NC(C)C)CC4)c3cc2C(C)C)cn2ncnc12 [Example 203, 6-isopropyl-1-((1r,4s)-4-(isopropylamino)cyclohexyl)-5-(8-methoxy-[1,2,4]triazolo[1,5-a]pyridin-6-yl)-1,3-dihydro-2H-benzo[d]imidazol-2-one]
15 | 1.23 nM | 3.21 nM | COc1cc(-c2cc3[nH]c(=O)n([C@H]4CC[C@H](NCC(C)C)CC4)c3cc2C(C)C)cn2ncnc12 [Example 204, 1-((1r,4s)-4-(isobutylamino)cyclohexyl)-6-isopropyl-5-(8-methoxy-[1,2,4]triazolo[1,5-a]pyridin-6-yl)-1,3-dihydro-2H-benzo[d]imidazol-2-one]
16 | 1.63 nM | 4.76 nM | COc1cc(-c2cc3[nH]c(=O)n([C@H]4CC[C@H](N(CC(C)C)CC(C)C)CC4)c3cc2C(C)C)cn2ncnc12 [Example 205, 1-((1r,4r)-4-(diisobutylamino)cyclohexyl)-6-isopropyl-5-(8-methoxy-[1,2,4]triazolo[1,5-a]pyridin-6-yl)-1,3-dihydro-2H-benzo[d]imidazol-2-one]
17 | 4.15 nM | 23.9 nM | COc1cc(-c2cc3[nH]c(=O)n([C@H]4CC[C@H](NC5CCN(C(C)C)CC5)CC4)c3cc2C(C)C)cn2ncnc12 [Example 207, 6-isopropyl-1-((1r,4r)-4-((1-isopropylpiperidin-4-yl)amino)cyclohexyl)-5-(8-methoxy-[1,2,4]triazolo[1,5-a]pyridin-6-yl)-1,3-dihydro-2H-benzo[d]imidazol-2-one]

— US12187723B2 (BRISTOL-MYERS SQUIBB COMPANY, priority 2019, dated 2025)
